How the values were obtained:
Assay in all cases: relative viability (nuclei count vs DMSO), 5 days (fraction); higher = more cells survive
17-AAG + Alpelisib = compound: C=CCNC1=C2C[C@@H](C)C[C@H](OC)[C@H](O)[C@@H](C)/C=C(\C)[C@H](OC(N)=O)[C@@H](OC)/C=C\C=C(/C)C(=O)NC(=CC1=O)C2=O [17-AAG] + Cc1nc(NC(=O)N2CCC[C@H]2C(N)=O)sc1-c1ccnc(C(C)(C)C(F)(F)F)c1 [Alpelisib] (partner 2 µM)
In short: (§1)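 Lung cancer cell lines were pin-tool dosed in 1536-well plates on the day after seeding, with either a lone drug or a fixed anchor-drug dose plus five library-drug doses (not always all listed) in √10 steps. Nuclei were counted on 4× images after 5 days. Relative viability is the ratio of treated-well to vehicle-well nuclei counts, with each value a median of duplicate plates.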

17-AAG + Linsitinib = compound: C=CCNC1=C2C[C@@H](C)C[C@H](OC)[C@H](O)[C@@H](C)/C=C(\C)[C@H](OC(N)=O)[C@@H](OC)/C=C\C=C(/C)C(=O)NC(=CC1=O)C2=O [17-AAG] + C[C@]1(O)C[C@@H](c2nc(-c3ccc4ccc(-c5ccccc5)nc4c3)c3c(N)nccn32)C1 [Linsitinib] (partner 1 µM)
In short: as §1

17-AAG + Pictilisib = compound: C=CCNC1=C2C[C@@H](C)C[C@H](OC)[C@H](O)[C@@H](C)/C=C(\C)[C@H](OC(N)=O)[C@@H](OC)/C=C\C=C(/C)C(=O)NC(=CC1=O)C2=O [17-AAG] + CS(=O)(=O)N1CCN(Cc2cc3nc(-c4cccc5[nH]ncc45)nc(N4CCOCC4)c3s2)CC1 [Pictilisib] (partner 1 µM)
In short: as §1

17-AAG + Decitabine = compound: C=CCNC1=C2C[C@@H](C)C[C@H](OC)[C@H](O)[C@@H](C)/C=C(\C)[C@H](OC(N)=O)[C@@H](OC)/C=C\C=C(/C)C(=O)NC(=CC1=O)C2=O [17-AAG] + Nc1ncn([C@H]2C[C@H](O)[C@@H](CO)O2)c(=O)n1 [Decitabine] (partner 2 µM)
In short: as §1

Cell Line	relative viability (17-AAG + Alpelisib; first compound 0.00128 µM)	relative viability (17-AAG + Alpelisib; first compound 0.004048 µM)	relative viability (17-AAG + Alpelisib; first compound 0.0128 µM)	relative viability (17-AAG + Alpelisib; first compound 0.04048 µM)	relative viability (17-AAG + Alpelisib; first compound 0.128 µM)	relative viability (17-AAG + Linsitinib; first compound 0.00128 µM)	relative viability (17-AAG + Linsitinib; first compound 0.004048 µM)	relative viability (17-AAG + Linsitinib; first compound 0.0128 µM)	relative viability (17-AAG + Linsitinib; first compound 0.04048 µM)	relative viability (17-AAG + Linsitinib; first compound 0.128 µM)	relative viability (17-AAG + Pictilisib; first compound 0.00128 µM)	relative viability (17-AAG + Pictilisib; first compound 0.004048 µM)	relative viability (17-AAG + Pictilisib; first compound 0.0128 µM)	relative viability (17-AAG + Pictilisib; first compound 0.04048 µM)	relative viability (17-AAG + Pictilisib; first compound 0.128 µM)	relative viability (17-AAG + Decitabine; first compound 0.00128 µM)	relative viability (17-AAG + Decitabine; first compound 0.004048 µM)	relative viability (17-AAG + Decitabine; first compound 0.0128 µM)	relative viability (17-AAG + Decitabine; first compound 0.04048 µM)	relative viability (17-AAG + Decitabine; first compound 0.128 µM)
COR-L 105	1.08	0.898	1.19	0.746	0.817	0.834	0.895	1	0.644	0.666	0.394	0.434	0.435	0.324	0.298	0.655	0.701	0.699	0.484	0.504
LK-2	1.13	0.998	1.28	0.217	0.233	0.575	0.463	0.615	0.479	0.136	0.725	0.659	0.6	0.208	0.175	0.269	0.37	0.187	0.0931	0.0957
NCI-H838	0.872	0.96	0.803	0.176	0.158	0.942	0.97	0.756	0.17	0.142	0.498	0.306	0.174	0.157	0.132	0.405	0.45	0.217	0.195	0.2
SK-LU-1	0.961	0.327	0.188	0.237	0.165	1.19	0.455	0.352	0.212	0.191	0.558	0.374	0.199	0.127	0.141	0.582	0.599	0.402	0.24	0.223
NCI-H2023	0.582	0.66	0.273	0.0878	0.0906	0.595	0.501	0.103	0.117	0.0914	0.292	0.173	0.0917	0.0989	0.0852	0.178	0.168	0.0829	0.0643	0.0587
NCI-H441	0.625	0.61	0.236	0.172	0.145	0.679	0.661	0.276	0.174	0.0829	0.582	0.334	0.285	0.216	0.124	0.275	0.219	0.121	0.118	0.137
NCI-H1666	0.949	0.713	0.299	0.216	0.214	0.764	0.554	0.27	0.253	0.224	0.585	0.302	0.265	0.196	0.157	0.74	0.804	0.641	0.364	0.363
NCI-H1648	–	–	–	–	–	–	–	–	–	–	–	–	–	–	–	–	0.522	0.547	0.38	0.324
NCI-H2087	1.16	0.904	0.308	0.189	0.165	0.886	0.797	0.344	0.248	0.197	0.867	0.651	0.356	0.229	0.175	0.248	0.193	0.104	0.113	0.114
LU99A	0.564	0.535	0.477	0.4	0.165	0.484	0.671	0.449	0.24	0.174	0.308	0.377	0.232	0.228	0.144	0.917	0.915	0.863	0.749	0.213
HCC-366	0.565	0.333	0.0236	0.0226	0.0154	0.52	0.659	0.0425	0.0221	0.0229	0.16	0.0822	0.0477	0.0368	0.0284	0.306	0.393	0.08	0.0528	0.0434
EKVX	0.878	0.944	0.875	0.208	0.163	1.12	1.08	0.873	0.252	0.122	0.43	0.472	0.528	0.142	0.101	0.351	0.284	0.257	0.162	0.139
NCI-H522	–	–	–	–	–	–	–	–	–	–	–	–	–	–	–	0.668	0.769	0.686	0.584	0.431
NCI-H1755	0.957	0.945	0.891	0.652	0.254	1.03	1.01	0.934	0.825	0.39	0.446	0.407	0.229	0.126	0.09	0.695	0.772	0.671	0.643	0.391
NCI-H650	1.19	1.09	1.26	0.855	0.326	0.865	0.908	0.788	0.314	0.177	0.96	1.05	0.744	0.776	0.329	0.315	0.339	0.384	0.302	0.196
LC-2-ad	0.955	0.863	0.747	0.167	0.0846	0.861	0.883	0.857	0.362	0.136	0.567	0.617	0.123	0.124	0.0943	0.776	0.876	0.713	0.645	0.227
NCI-H1793	0.846	0.612	0.356	0.198	0.167	0.824	0.712	0.51	0.236	0.153	0.309	0.172	0.193	0.188	0.144	0.429	0.382	0.225	0.21	0.159
